Reference: PMC7998250, “Temperate Zone Plant Natural Products—A Novel Resource for Activity against Tropical Parasitic Diseases” (Pharmaceuticals, 2021)

What was measured:
[1] = tested on: WT L. mexicana procyclic promastigotes; assay: EC50 in WT L. mexicana promastigotes; format: cell-based; settings: Leishmania mexicana, read-out: EC50 in WT promastigotes
Procedure: (§1) A 700022-resistant line of L. mexicana (r22) was generated using a previously reported method (Figure S3). […] All leishmanicidal sterols identified were assayed against r22 after 8 weeks of 700022 pressure and cross-resistance was found against all four compounds, each with a similar resistance index of between 4–5 (Figure 6c). Following 28 weeks of selection, the morphology of the r22 promastigotes was compared to that of WT (Figure 6d). […] The body area of both promastigotes and amastigotes was also assessed, noting a small (c 20%) decrease in the body area of r22 parasites compared to WT strains (Figure S3).
(§2) L. mexicana parasites were grown in increasing concentrations of 700022 in a stepwise manner, as previously described. […] A dose response assay of the newly selected promastigotes was completed as stated above, with the exception of the seeding density of 1 × 10^5 cells/mL. At this point, the drug pressure was increased to the concentration of the new EC50 value.

[2] = tested on: L. mexicana r22 promastigotes; assay: EC50 in 700022-resistant L. mexicana (r22) promastigotes; format: cell-based; settings: Leishmania mexicana, read-out: EC50 in r22 promastigotes, after 28 weeks of 700022 selection
Procedure: as §1, §2

[3] = tested on: L. mexicana intramacrophage amastigotes; assay: L. mexicana intramacrophage assay (NanoLuc PEST strain in THP-1); format: cell-based, Leishmania mexicana
From the text: Figure S4: Leishmania intramacrophage assays. […] Data represents the mean and standard deviation (n=4). B Average number of parasites per macrophage in the same experiment as A. A Kruskal-Wallis test followed by Dunn’s multiple comparison test was used to determine a significant difference (p<0.05) of each treatment to the untreated control and have been indicated with those being significant marked with an asterix. C Comparing 700022 activity between axenic amastigotes (red) and intramacrophage amastigotes (blue). Concentration–response curves for compound 700022 against: intracellular L. mexicana NanoLuc-PEST-transgenic line (blue), axenic amastigotes of NanoLuc-PEST-transgenic line (red) as well as the human cell lines HepG2 (green) and THP-1 (black). The data for the intracellular L. mexicana NanoLuc-PEST-transgenic line represent one biological repeat of three technical repeats.

[4] = tested on: activated monocyte cell line (THP-1); assay: Cytotoxicity CC50, differentiated THP-1, Alamar Blue; format: cell-based, human; settings: for CC50: differentiated THP-1, 48 h, read-out: THP1 CC50
[5] = tested on: HepG2 cells; assay: Cytotoxicity CC50, HepG2, Alamar Blue; settings: read-out: HepG2 CC50; 48 h
Summary of the method: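 Human hepatoma cells seeded at 1 × 10^5 cells/mL with two-fold serial compound dilutions, incubated 48 h at 37 °C, 5% CO2 in DMEM/10% FBS. Viability read by Alamar Blue. CC50 estimated from viability normalised to untreated controls versus log concentration.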

[6] = factor, relative to intramacrophage amastigote EC50

Question: `CC1=CC(O)(CC(C)C2(C)CC=C3C4=CCC5C(C)(C)C(O)CCC5(C)C4CCC32C)OC1=O` (stereo not shown) [Compound 700022] was tested. Which EC50 [1] did it give?
Answer: 11.5 µM

Question: And the EC50 [2]?
Answer: 85.6 µM

Question: What about the EC50 ([3]; Leishmania mexicana, L. mexicana NanoLuc PEST strain in THP-1) of the same compound?
Answer: 10.7 µM

Question: What about the “selectivity over HepG2” value [3, 6] of the same compound?
Answer: 2.7

Question: And the “selectivity over THP-1” value [3, 6]?
Answer: 1.6

Question: What does the source list for `C/C(=C/C(=O)CC(C)C1CCC2(C)C3=CCC4C(C)(C)C(=O)CCC4(C)C3CCC12C)C(=O)O` (stereo not shown) [Compound 700240]?
Answer: selectivity index (THP-1 CC50 / L. mexicana EC50) ([4]; L. mexicana compared to THP-1): 21; CC50 [4]: 14 µM

Question: How did the CC50 [5] turn out when `C=C1C(=O)OC2CC(C)C3C=CC(=O)C3(C)C(OC(C)=O)C12` (stereo not shown) [Compound 701155] was run?
Answer: 1100 nM

Question: And the CC50 [4]?
Answer: 0.38 µM

Question: With `C=C1C(=O)OC2CC(C)C3C=CC(=O)C3(C)C(OC(=O)C(C)CC)C12` (stereo not shown) [Compound 701158] as the compound, how does the CC50 [5] read?
Answer: 810 nM
